The values below come from patent US20240417405A1, “Substituted Spiro Derivatives” (Janssen Pharmaceutica NV, priority 2021, published 2024).

For test [1], the target named is T1, menin/MLL (terbium chelate-labeled menin, FITC-MBM1 peptide) (Homo sapiens, UniProt O00255, T541A).
T1 construct: Menin (a.a 1-610-6xhis tag)
T1 sequence (O00255 with tags, fused parts or gaps T541A): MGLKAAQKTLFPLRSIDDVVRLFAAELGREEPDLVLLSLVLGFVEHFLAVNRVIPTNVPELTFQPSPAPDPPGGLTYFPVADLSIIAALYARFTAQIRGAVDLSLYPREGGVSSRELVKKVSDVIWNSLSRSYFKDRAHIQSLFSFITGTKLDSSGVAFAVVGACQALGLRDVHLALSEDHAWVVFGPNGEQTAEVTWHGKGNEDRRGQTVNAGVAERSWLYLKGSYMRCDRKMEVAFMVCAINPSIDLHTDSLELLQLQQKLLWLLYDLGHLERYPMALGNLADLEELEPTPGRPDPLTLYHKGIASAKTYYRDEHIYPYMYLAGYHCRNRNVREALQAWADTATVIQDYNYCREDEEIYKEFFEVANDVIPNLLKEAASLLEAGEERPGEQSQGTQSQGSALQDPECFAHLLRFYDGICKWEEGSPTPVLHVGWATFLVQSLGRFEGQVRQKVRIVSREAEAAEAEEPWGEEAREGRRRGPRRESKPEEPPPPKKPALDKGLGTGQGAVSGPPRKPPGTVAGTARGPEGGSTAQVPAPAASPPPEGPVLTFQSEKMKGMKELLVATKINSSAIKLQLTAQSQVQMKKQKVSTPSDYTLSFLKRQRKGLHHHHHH
Briefly: Menin/MLL homogenous time-resolved fluorescence (HTRF) assay. It is filed as binding. To be noted: 30 min incubation. How it is done: 1) Menin/MLL Homogenous Time-Resolved Fluorescence (HTRF) Assay
To an untreated, white 384-well microtiter plate was added 40 nL 200× test compound in DMSO and 4 μL 2× terbium chelate-labeled menin (vide infra for preparation) in assay buffer (40 mM Tris.HCl, pH 7.5, 50 mM NaCl, 1 mM DTT (dithiothreitol) and 0.05% Pluronic F-127). After incubation of test compound and terbium chelate-labeled menin for 30 min at ambient temperature, 4 μL 2× FITC-MBM1 peptide (FITC-β-alanine-SARWRFPARPGT-NH2 (SEQ ID NO: 3)) (“FITC” means fluorescein isothiocyanate) in assay buffer was added, the microtiter plate centrifuged at 1000 rpm for 1 min and the assay mixtures incubated for 15 min at ambient temperature. The relative amount of menin FITC-MBM1 complex present in an assay mixture is determined by measuring the homogenous time-resolved fluorescence (HTRF) of the terbium/FITC donor/acceptor fluorophore pair using an EnVision microplate reader (ex. 337 nm/terbium em. 490 nm/FITC em. 520 nm) at ambient temperature. The degree of fluorescence resonance energy transfer (the HTRF value) is expressed as the ratio of the fluorescence emission intensities of the FITC and terbium fluorophores (F^em 520 nm/F^em 490 nm). The final concentrations of reagents in the binding assay are 200 pM terbium chelate-labeled menin, 75 nM FITC-MBM1 peptide and 0.5% DMSO in assay buffer. Dose-response titrations of test compounds are conducted using an 11 point, four-fold serial dilution scheme, starting typically at 10 μM.
Compound potencies were determined by first calculating % inhibition at each compound concentration according to equation 1:
% inhibition=((HC−LC)−(HTRF^compound−LC))/(HC−LC))*100 (Eqn 1)
Where LC and HC are the HTRF values of the assay in the presence or absence of a saturating concentration of a compound that competes with FITC-MBM1 for binding to menin, and HTRF^compound is the measured HTRF value in the presence of the test compound. HC and LC HTRF values represent an average of at least 10 replicates per plate.
% inhibition=Bottom+(Top−Bottom)/(1+10^((logIC50−log[cmpd])*h)) (Eqn 2)
Where Bottom and Top are the lower and upper asymptotes of the dose-response curve, respectively, IC50 is the concentration of compound that yields 50% inhibition of signal and h is the Hill coefficient. IC50 values below 0.1 nM in the HTRF assay were reported as 0.1 nM in the Table below (detection limit).
Preparation of Terbium cryptate labeling of Menin: Menin (a.a 1-610-6xhis tag (“6xhis tag” disclosed as SEQ ID NO: 2), 2.3 mg/mL in 20 mM Hepes (2-[4-(2-Hydroxyethyl)-1-piperazinyl]ethane sulfonic acid), 80 mM NaCl, 5 mM DTT (Dithiothreitol), pH 7.5) was labeled with terbium cryptate as follows. 200 μg of Menin was buffer exchanged into 1× Hepes buffer. 6.67 μM Menin was incubated with 8-fold molar excess NHS (N-hydroxysuccinimide)-terbium cryptate for 40 minutes at room temperature. Half of the labeled protein was purified away from free label by running the reaction over a NAP5 column with elution buffer (0.1 M Hepes, pH 7+0.1% BSA (bovine serum albumin)). The other half was eluted with 0.1 M phosphate buffered saline (PBS), pH7. 400 μl of eluent was collected for each, aliquoted and frozen at −80° C. The final concentration of terbium-labeled Menin protein was 115 μg/mL in Hepes buffer and 85 μg/mL in PBS buffer, respectively.

The next test has as its system MOLM14 cells. In words: Proliferation assay, spheroid-like growth, MOLM14 (MLL-AF9 rearranged). It is filed as cell-based, human. To be noted: Homo sapiens, MOLM-14, 192 h, 8 days, confluence as measure of spheroid size, read-out: spheroid assay_OneTime MOLM14 IC50. How it is done: The anti-proliferative effect of menin/MLL protein/protein interaction inhibitor test compounds was assessed in human leukemia cell lines. The cell line MOLM14 harbors a MLL translocation and expresses the MLL fusion proteins MLL-AF9, respectively, as well as the wildtype protein from the second allele. […] KO-52 was used as a control cell line containing two MLL (KMT2A) wildtype alleles in order to exclude compounds that display general cytotoxic effects.
MOLM14 cells were cultured in RPMI-1640 (Sigma Aldrich) supplemented with 10% heat-inactivated fetal bovine serum (HyClone), 2 mM L-glutamine (Sigma Aldrich) and 50 μg/ml gentamycin (Gibco). KO-52 cell lines were propagated in alpha-MEM (Sigma Aldrich) supplemented with 20% heat-inactivated fetal bovine serum (HyClone), 2 mM L-glutamine (Sigma Aldrich) and 50 μg/ml gentamycin (Gibco).
In order to assess the anti-proliferative effects, 200 MOLM14 cells, or 300 KO-52 cells were seeded in 200 μl media per well in 96-well round bottom, ultra-low attachment plates (Costar, catalogue number 7007). Cell seeding numbers were chosen based on growth curves to ensure linear growth throughout the experiment. Test compounds were added at different concentrations and the DMSO content was normalized to 0.3%. Cells were incubated for 8 days at 37° C. and 5% CO2. Spheroid like growth was measured in real-time by live-cell imaging (IncuCyteZOOM, Essenbio, 4× objective) acquiring images at day 8. Confluence (%) as a measure of spheroid size was determined using an integrated analysis tool.
In order to determine the effect of the test compounds over time, the confluence in each well as a measure of spheroid size, was calculated. Confluence of the highest dose of a reference compound was used as baseline for the LC (Low control) and the confluence of DMSO treated cells was used as 0% cytotoxicity (High Control, HC).
Absolute IC50 values were calculated as percent change in confluence as follows:
LC=Low Control: cells treated with e.g. 1 μM of the cytotoxic agent staurosporin, or e.g. cells treated with a high concentration of an alternative reference compound
GraphPad Prism (version 7.00) was used to calculate the IC50. Dose-response equation was used for the plot of % Effect vs Log 10 compound concentration with a variable slope and fixing the maximum to 100% and the minimum to 0%.

Broadly, the IC50 is the concentration at which inhibition is half-maximal. As for `CC(C)[C@H]([C@H]1C[C@@H](NC2(C)CCS(=O)(=O)CC2)C1)N1CC2(CCN(c3ncnnc3Oc3ccc(F)cc3-c3cncnc3C3CC3)C2)C1` (single isomer, unassigned) [Compound 44], the figures for the IC50 (in test [1]; in the test on MOLM14 cells) were 0.1 nM and 27 nM, respectively.
`CC(=O)Nc1cc(N[C@H]2C[C@@H](C(C(C)C)N3CC4(CCN(c5ncnnc5Oc5ccc(F)cc5-c5cncnc5C5CC5)C4)C3)C2)cnn1` (single isomer, unassigned) [Compound 414]: the IC50 in test [1] amounted to 0.1 nM; with MOLM14 cells it was 21 nM.
As for `COC(=O)Nc1cc(N[C@H]2C[C@@H]([C@@H](C(C)C)N3CC4(CCN(c5ncnnc5Oc5ccc(F)cc5-c5cncnc5C5CC5)C4)C3)C2)ccn1` (single isomer, unassigned) [Compound 427], the IC50 in test [1] was around 0.11 nM; in the test with MOLM14 cells, below 1.8 nM.
Take `CC(=O)N1CCN([C@H]2C[C@H]([C@H](C(C)C)N3CC4(CCN(c5ncnnc5Oc5ccc(F)cc5-c5cnncc5C5CC5)C4)C3)C2)CC1` (single isomer, unassigned) [Compound 105]: the IC50 in test [1] is 1 nM.
For the compound `CC(C)[C@H]([C@H]1C[C@@H](N2CCNC(=O)C2)C1)N1CC2(CCN(c3ncnnc3Oc3ccc(F)cc3-c3cncnc3C3CC3)C2)C1` (single isomer, unassigned) [Compound 240], the half-maximal inhibitory concentration (IC50) in test [1] worked out at 1.9 nM; with MOLM14 cells it was 270 nM.
Consider `CC(C)C([C@H]1C[C@@H](Nc2n[nH]c3ncncc23)C1)N1CC2(CCN(c3ncnnc3Oc3ccc(F)cc3-c3cncnc3C3CC3)C2)C1` (single isomer, unassigned) [Compound 458], for which the results for the IC50 (in test [1]; with MOLM14 cells) were 0.16 nM and 27 nM, respectively.
As to `CC(=O)N1CCN([C@H]2C[C@@H](C(C(C)C)N3CC4(CCN(c5ncnnc5Oc5ccc(F)cc5-c5cnc(C#N)nc5C5CC5)C4)C3)C2)CC1` (stereo partly shown) [Compound 169], the IC50 in test [1] is 0.5 nM; with MOLM14 cells, 51 nM.
In test [1], `CC(C)[C@@H](C1CN(CC2COC2)C1)N1CC2(CCN(c3ncnnc3Oc3ccc(F)cc3-c3cncnc3C3CC3)C2)C1` (single isomer, unassigned) [Compound 353] gave a half-inhibitory concentration (IC50) of 0.5 nM.
With `C[C@@H]([C@H]1C[C@@H](NC(=O)C2CC2)C1)N1CC2(CCN(c3ncnnc3Oc3ccc(F)cc3-c3cncnc3C3CC3)C2)C1` (single isomer, unassigned) [Compound 444], half-maximal inhibition in test [1] (IC50) was put at 0.16 nM.
The compound `Cc1noc(C2CC2)c1-c1cc(F)ccc1Oc1nncnc1N1CCC2(C1)CN([C@H](C(C)C)[C@H]1C[C@@H](NC(=O)OC(C)(C)C)C1)C2` [Compound 504, tert-butyl N-[3-[(1R)-1-[7-[6-[2-(5-cyclopropyl-3-methyl-isoxazol-4-yl)-4-fluoro-phenoxy]-1,2,4-triazin-5-yl]-2,7-diazaspiro[3.4]octan-2-yl]-2-methyl-propyl]cyclobutyl]carbamate] had an IC50 in test [1] of 0.58 nM.
In test [1], `CC(C)C(C1CCN(CC2COC2)CC1)N1CC2(CCN(c3ncnnc3Oc3ccc(F)cc3-c3nccnc3C3CC3)C2)C1` (stereo not shown) [Compound 202] came in with an IC50 of 0.7 nM.
The same measure, in the same setting: in the case of `CNC(=O)c1nccc(N[C@H]2C[C@@H]([C@@H](C(C)C)N3CC4(CCN(c5ncnnc5Oc5ccc(F)cc5-c5cncnc5C5CC5)C4)C3)C2)n1` (single isomer, unassigned) [Compound 457] it was 0.29 nM.
For `C[C@@H]([C@H]1C[C@@H](NC(=O)C2(F)CC2)C1)N1CC2(CCN(c3ncnnc3Oc3ccc(F)cc3-c3cncnc3C3CC3)C2)C1` (single isomer, unassigned) [Compound 456], the concentration for half-maximal inhibition (IC50) in test [1] is 0.53 nM.
Take `CC(=O)N[C@H]1C[C@@H](C(C(C)C)N2CC3(CCN(c4ncnnc4Oc4ccc(F)cc4-c4ccnnc4C4CC4)C3)C2)C1` (stereo partly shown) [Compound 182]: the IC50 in test [1] was found to be 0.6 nM.
`Cc1noc(C2CC2)c1-c1cc(F)ccc1Oc1nncnc1N1CCC2(C1)CN([C@H](C(C)C)[C@H]1C[C@@H](N(C)C)C1)C2` (single isomer, unassigned) [Compound 503] gave a 50% inhibitory concentration (IC50) in test [1] of 0.18 nM.
Compound `CC(C)[C@H]([C@H]1C[C@@H](N2CC3(CCC(=O)N3C)C2)C1)N1CC2(CCN(c3ncnnc3Oc3ccc(F)cc3-c3cncnc3C3CC3)C2)C1` (single isomer, unassigned) [Compound 316] showed an IC50 in test [1] of 4.9 nM.
`COC(=O)c1nccc(N[C@H]2C[C@@H](C(C(C)C)N3CC4(CCN(c5ncnnc5Oc5ccc(F)cc5-c5cncnc5C5CC5)C4)C3)C2)n1` (single isomer, unassigned) [Compound 489] came in with an IC50 in test [1] of 0.22 nM.
In turn, `Cc1noc(C2CC2)c1-c1cc(F)ccc1Oc1nncnc1N1CCC2(C1)CN([C@H](C(C)C)C1CC(NC(=O)OC(C)(C)C)C1)C2` (stereo partly drawn) [Compound 505, tert-butyl N-[3-[(1R)-1-[7-[6-[2-(5-cyclopropyl-3-methyl-isoxazol-4-yl)-4-fluoro-phenoxy]-1,2,4-triazin-5-yl]-2,7-diazaspiro[3.4]octan-2-yl]-2-methyl-propyl]cyclobutyl]carbamate] gave an IC50 in test [1] of 0.54 nM.
In turn, `CNC(=O)c1nc(N[C@H]2C[C@@H](C(C(C)C)N3CC4(CCN(c5ncnnc5Oc5ccc(F)cc5-c5cncnc5C5CC5)C4)C3)C2)oc1C` (single isomer, unassigned) [Compound 459] showed an IC50 in test [1] of 0.06 nM.
